# Experimental data taken from patent US20060229433A1, “Modified antiviral peptides with increased activity and cell membrane affinity” (priority 2003, published 2006).
# Where “and” joins values, the source holds several entries; their conditions need not be identical. Identical values can stand only once. Peptide text beside a SMILES is read from it.
# Experiments:
# Assay type in all cases: cell-based
# HIV-1 NDK = test: HIV-1 infection of C8166 cells (syncytia formation, p24 ELISA) with HIV-1 NDK; set-up: key to syncitia formed, Day 4 / syncitia formed, Day 5 / syncitia formed, Day 6 / syncitia formed, Day 7: ++, +, (+), (+)− and − represent decreasing numbers of syncitia formed; ++, +, (+), (+)− and − represent decreasing numbers of syncitia formed; ++, +, (+), (+)− and − represent decreasing numbers of syncitia formed; ++, +, (+), (+)− and − represent decreasing numbers of syncitia formed; ++, +, (+), (+)− and − represent decreasing numbers of syncitia formed; details: for P 24: P 24 after Day 7
# Description: HIV-1 NL 4-3 isolate (Adachi et al., 1986; Barré-Sinoussi et al., 1983) and highly cytopathic Zairian HIV-1 NDK isolate (Ellrodt et al., 1984) was propagated in permissive CEM cells (Nara et al., 1987). Uninfected CEM and C8166 (Salahuddin et al., 1983) were maintained in RPMI 1640 (R10) with ultraglutamine (cambrex, Vervier, Belgium), penicillin (100 U/ml), streptomycin (100 μg/ml), and 10% heat-inactivated fetal calf serum (Cambrex).
# Samples of 3×10^5/100 μL C8166 cells were preincubated in 96-well microtiter plates in culture medium containing various concentrations of peptide. After a 1 h treatment at 37° C., 100 μl of diluted viral solution of HIV-1 was added. The cells were exposed to the virus for 1 h at 37° C. at a multiplicity of infection of 1000 TCID50 per ml. The cells were washed three times and cultured at 3×10^5/ml of R10 with the treatment in 24-well plates incubated at 37° C. C8166 culture medium was replaced at Day-4 post-infection. The treatment was permanent before virus adsorption, during virus adsorption and after infection. Assays on C8166 cells have been performed at least twice and in duplicate. Toxicity was evaluated by daily cell count and trypan-blue exclusion assay. Infection of C8166 T-cells with HIV-1 was assessed by virus-induced cytopathic effects (syncytia formation) and by quantification of cell free p24 viral protein in the culture supernatants. Measurements of HIV-1 p24^gag concentration in the culture supernatants were achieved by ELISA (ALLIANCE® HIV-1 p24 kit, Perkin Elmer, life sciences, USA).
# HIV-1 NL 4-3 [1] = test: HIV-1 infection of C8166 cells (syncytia formation, p24 ELISA) with HIV-1 NL 4-3; set-up: key: ++, +, (+), (+)− and − represent decreasing numbers of syncitia formed; ++, +, (+), (+)− and − represent decreasing numbers of syncitia formed; ++, +, (+), (+)− and − represent decreasing numbers of syncitia formed; ++, +, (+), (+)− and − represent decreasing numbers of syncitia formed; ++, +, (+), (+)− and − represent decreasing numbers of syncitia formed; details: Table 6
# In short: (§1)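 Infection was read out as syncytia and as cell-free p24 in supernatants (ELISA) from C8166 cells that received HIV-1 (1000 TCID50/ml, 1 h, 37 °C) after a 1 h peptide pretreatment. Peptide stayed on before, during and after adsorption. Toxicity was checked by daily trypan-blue counts.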
# HIV-1 NL 4-3 [2] = test: as above; set-up: key to syncitia formed, Day 4 / syncitia formed, Day 5 / syncitia formed, Day 6 / syncitia formed, Day 7: ++, +, (+), (+)− and − represent decreasing numbers of syncitia formed; ++, +, (+), (+)− and − represent decreasing numbers of syncitia formed; ++, +, (+), (+)− and − represent decreasing numbers of syncitia formed; ++, +, (+), (+)− and − represent decreasing numbers of syncitia formed; ++, +, (+), (+)− and − represent decreasing numbers of syncitia formed
# In short: as §1
# [3] = C8166 cells, HIV-1 subtype B NL 4-3, Table 9, two lines = tested twice, 8 days apart
structure (smiles),measurement,setting,value
"NCC(=O)N1CCC[C@H]1C(=O)NCC(=O)O [GPG, reference compound] (H-Gly-Pro-Gly-OH)","syncitia formed, Day 4",HIV-1 NDK; 0.005 μM,+
same,"syncitia formed, Day 5",HIV-1 NDK; 0.005 μM,+
same,"syncitia formed, Day 6",HIV-1 NDK; 0.005 μM,++
same,"syncitia formed, Day 7",HIV-1 NDK; 0.005 μM,++
same,P 24,HIV-1 NDK; 0.005 μM,23810 pg/mL
same,"syncitia formed, Day 4",HIV-1 NDK; 0.01 μM,+
same,"syncitia formed, Day 5",HIV-1 NDK; 0.01 μM,+
same,"syncitia formed, Day 6",HIV-1 NDK; 0.01 μM,++
same,"syncitia formed, Day 7",HIV-1 NDK; 0.01 μM,++
same,P 24,HIV-1 NDK; 0.01 μM,23810 pg/mL
same,"syncitia formed, Day 4",HIV-1 NDK; 0.05 μM,(+)
same,"syncitia formed, Day 5",HIV-1 NDK; 0.05 μM,+
same,"syncitia formed, Day 6",HIV-1 NDK; 0.05 μM,++
same,"syncitia formed, Day 7",HIV-1 NDK; 0.05 μM,++
same,P 24,HIV-1 NDK; 0.05 μM,23810 pg/mL
same,"syncitia formed, Day 4",HIV-1 NDK; 0.1 μM,−
same,"syncitia formed, Day 5",HIV-1 NDK; 0.1 μM,+
same,"syncitia formed, Day 6",HIV-1 NDK; 0.1 μM,++
same,"syncitia formed, Day 7",HIV-1 NDK; 0.1 μM,++
same,P 24,HIV-1 NDK; 0.1 μM,23810 pg/mL
same,"syncitia formed, Day 4",HIV-1 NDK; 0.5 μM,−
same,"syncitia formed, Day 5",HIV-1 NDK; 0.5 μM,+
same,"syncitia formed, Day 6",HIV-1 NDK; 0.5 μM,++
same,"syncitia formed, Day 7",HIV-1 NDK; 0.5 μM,++
same,P 24,HIV-1 NDK; 0.5 μM,21110 pg/mL and 23810 pg/mL
same,"syncitia formed, Day 4",HIV-1 NDK; 1 μM,−
same,"syncitia formed, Day 5",HIV-1 NDK; 1 μM,(+)
same,"syncitia formed, Day 6",HIV-1 NDK; 1 μM,+
same,"syncitia formed, Day 7",HIV-1 NDK; 1 μM,+
same,P 24,HIV-1 NDK; 1 μM,3810 pg/mL and 2507 pg/mL
same,"syncitia formed, Day 4",HIV-1 NDK; 5 μM,−
same,"syncitia formed, Day 5",HIV-1 NDK; 5 μM,−
same,"syncitia formed, Day 6",HIV-1 NDK; 5 μM,−
same,"syncitia formed, Day 7",HIV-1 NDK; 5 μM,+
same,P 24,HIV-1 NDK; 5 μM,2733 pg/mL and 2400 pg/mL
same,IC50,"HIV-1 NDK; HIV 1 NDK, Table 10",500 nM
same,IC100,"HIV-1 NDK; HIV 1 NDK, Table 10",>5 µM
same,Day 4 syncitia formed,HIV-1 NL 4-3 [1]; 0.005 μM,−
same,Day 5 syncitia formed,HIV-1 NL 4-3 [1]; 0.005 μM,+
same,Day 6 syncitia formed,HIV-1 NL 4-3 [1]; 0.005 μM,++
same,Day 4 syncitia formed,HIV-1 NL 4-3 [1]; 0.01 μM,−
same,Day 5 syncitia formed,HIV-1 NL 4-3 [1]; 0.01 μM,(+)
same,Day 6 syncitia formed,HIV-1 NL 4-3 [1]; 0.01 μM,+
same,Day 7 syncitia formed,HIV-1 NL 4-3 [1]; 0.01 μM,++
same,Day 4 syncitia formed,HIV-1 NL 4-3 [1]; 0.05 μM,−
same,Day 5 syncitia formed,HIV-1 NL 4-3 [1]; 0.05 μM,−
same,Day 6 syncitia formed,HIV-1 NL 4-3 [1]; 0.05 μM,(+)
same,Day 7 syncitia formed,HIV-1 NL 4-3 [1]; 0.05 μM,+
same,Day 4 syncitia formed,HIV-1 NL 4-3 [1]; 0.1 μM,−
same,Day 5 syncitia formed,HIV-1 NL 4-3 [1]; 0.1 μM,−
same,Day 6 syncitia formed,HIV-1 NL 4-3 [1]; 0.1 μM,−
same,Day 7 syncitia formed,HIV-1 NL 4-3 [1]; 0.1 μM,+
same,Day 4 syncitia formed,HIV-1 NL 4-3 [1]; 0.5 μM,−
same,Day 5 syncitia formed,HIV-1 NL 4-3 [1]; 0.5 μM,−
same,Day 6 syncitia formed,HIV-1 NL 4-3 [1]; 0.5 μM,−
same,Day 7 syncitia formed,HIV-1 NL 4-3 [1]; 0.5 μM,−
same,Day 4 syncitia formed,HIV-1 NL 4-3 [1]; 1 μM,−
same,Day 5 syncitia formed,HIV-1 NL 4-3 [1]; 1 μM,−
same,Day 6 syncitia formed,HIV-1 NL 4-3 [1]; 1 μM,−
same,Day 7 syncitia formed,HIV-1 NL 4-3 [1]; 1 μM,−
same,Day 4 syncitia formed,HIV-1 NL 4-3 [1]; 5 μM,−
same,Day 5 syncitia formed,HIV-1 NL 4-3 [1]; 5 μM,−
same,Day 6 syncitia formed,HIV-1 NL 4-3 [1]; 5 μM,−
same,Day 7 syncitia formed,HIV-1 NL 4-3 [1]; 5 μM,−
same,Day 7 syncitia formed,"HIV-1 NL 4-3 [2]; 0.005 μM, Table 6",++/T
same,"syncitia formed, Day 4","HIV-1 NL 4-3 [2]; 0.01 μM, C8166 cells",(+)
same,"syncitia formed, Day 5","HIV-1 NL 4-3 [2]; 0.01 μM, C8166 cells",(+)
same,"syncitia formed, Day 6","HIV-1 NL 4-3 [2]; 0.01 μM, C8166 cells",+
same,"syncitia formed, Day 7","HIV-1 NL 4-3 [2]; 0.01 μM, Day 7, C8166 cells",++
same,P 24,"HIV-1 NL 4-3 [2]; 0.01 μM, P 24 after Day 7, C8166 cells",9810 pg/mL and 15810 pg/mL
same,"syncitia formed, Day 4","HIV-1 NL 4-3 [2]; 0.1 μM, C8166 cells",−
same,"syncitia formed, Day 5","HIV-1 NL 4-3 [2]; 0.1 μM, C8166 cells",−
same,"syncitia formed, Day 6","HIV-1 NL 4-3 [2]; 0.1 μM, C8166 cells",(+)
same,"syncitia formed, Day 7","HIV-1 NL 4-3 [2]; 0.1 μM, Day 7, C8166 cells",+
same,P 24,"HIV-1 NL 4-3 [2]; 0.1 μM, P 24 after Day 7, C8166 cells",807 pg/mL and 1506 pg/mL
same,"syncitia formed, Day 4","HIV-1 NL 4-3 [2]; 0.5 μM, C8166 cells",−
same,"syncitia formed, Day 5","HIV-1 NL 4-3 [2]; 0.5 μM, C8166 cells",−
same,"syncitia formed, Day 6","HIV-1 NL 4-3 [2]; 0.5 μM, C8166 cells",− and (+)
same,"syncitia formed, Day 7","HIV-1 NL 4-3 [2]; 0.5 μM, Day 7, C8166 cells",(+) and +
same,"syncitia formed, Day 4","HIV-1 NL 4-3 [2]; 1 μM, C8166 cells",−
same,"syncitia formed, Day 5","HIV-1 NL 4-3 [2]; 1 μM, C8166 cells",−
same,"syncitia formed, Day 6","HIV-1 NL 4-3 [2]; 1 μM, C8166 cells",−
same,"syncitia formed, Day 7","HIV-1 NL 4-3 [2]; 1 μM, Day 7, C8166 cells",(+)
same,P 24,"HIV-1 NL 4-3 [2]; 1 μM, P 24 after Day 7, C8166 cells",62 pg/mL and 42 pg/mL
same,"syncitia formed, Day 4","HIV-1 NL 4-3 [2]; 5 μM, C8166 cells",−
same,"syncitia formed, Day 5","HIV-1 NL 4-3 [2]; 5 μM, C8166 cells",−
same,"syncitia formed, Day 6","HIV-1 NL 4-3 [2]; 5 μM, C8166 cells",−
same,"syncitia formed, Day 7","HIV-1 NL 4-3 [2]; 5 μM, Day 7, C8166 cells",−
same,IC50,HIV-1 NL 4-3 [2]; [3],10 nM
same,IC100,HIV-1 NL 4-3 [2]; [3],5 µM
same,P 24,"HIV-1 NL 4-3 [2]; Day 7, 0.005 μM, Table 6",23810 pg/mL
same,P 24,"HIV-1 NL 4-3 [2]; Day 7, 0.01 μM, Table 6",13850 pg/mL and 11756 pg/mL
same,P 24,"HIV-1 NL 4-3 [2]; Day 7, 0.05 μM, Table 6",7330 pg/mL and 9810 pg/mL
same,P 24,"HIV-1 NL 4-3 [2]; Day 7, 1 μM, Table 6",5.4 pg/mL and 3.8 pg/mL
